In brackets after ≈: the same amount, converted by molar mass.
Assays:
[1] = tested on: Staphylococcus aureus; assay: Antibacterial activity against methicillin-resistant Staphylococcus aureus […] incubated for 16 to 20 hrs by CLSI based broth microdilution method; assay type: functional; conditions: time 16-20 hrs
[2] = tested on: Staphylococcus aureus; assay: Antibacterial activity against methicillin-resistant Staphylococcus aureus USA300 incubated for 16 to 20 hrs by CLSI based broth microdilution method; assay type: functional; conditions: time 16-20 hrs
[3] = tested on: Staphylococcus aureus; assay: Antibacterial activity against methicillin-susceptible Staphylococcus aureus ATCC 49775 incubated for 16 to 20 hrs by CLSI based broth microdilution method; assay type: functional; conditions: time 16-20 hrs
[4] = tested on: Staphylococcus aureus; assay: Antibacterial activity against methicillin-susceptible Staphylococcus aureus ATCC 29213 incubated for 16 to 20 hrs by CLSI based broth microdilution method; assay type: functional; conditions: time 16-20 hrs
[5] = Inhibition of Staphylococcus aureus BPL assessed as inhibition constant by biotinylation assay

Row | Structure (SMILES) | MIC [1] | MIC [2] | MIC [3] | MIC [4] | Ki [5]
1 | Nc1ncnc2c1ncn2CCCNS(=O)(=O)NC(=O)OCCCCC[C@@H]1SC[C@@H]2NC(=O)N[C@@H]21 | 16 µg/mL (≈ 30.3 µM) | 32 µg/mL (≈ 60.6 µM) | 32 µg/mL (≈ 60.6 µM) | 32 µg/mL (≈ 60.6 µM) | 20.1 nM
2 | Nc1ncnc2c1ncn2CCCCOS(=O)(=O)NC(=O)NCCCC[C@@H]1SC[C@@H]2NC(=O)N[C@@H]21 | 16 µg/mL (≈ 30.3 µM) | 32 µg/mL (≈ 60.6 µM) | 32 µg/mL (≈ 60.6 µM) | 32 µg/mL (≈ 60.6 µM) | 35.3 nM
3 | Nc1ncnc2c1ncn2CCCCS(=O)(=O)NC(=O)OCCCCC[C@@H]1SC[C@@H]2NC(=O)N[C@@H]21 | > 256 µg/mL | > 256 µg/mL | > 256 µg/mL | > 256 µg/mL | 10.3 nM
4 | Nc1ncnc2c1ncn2CCCCCS(=O)(=O)NC(=O)NCCCC[C@@H]1SC[C@@H]2NC(=O)N[C@@H]21 | 16 µg/mL (≈ 30.4 µM) | 16 µg/mL (≈ 30.4 µM) | 16 µg/mL (≈ 30.4 µM) | 16 µg/mL (≈ 30.4 µM) | 57.2 nM
5 | Nc1ncnc2c1ncn2CCCCNS(=O)(=O)NC(=O)NCCCC[C@@H]1SC[C@@H]2NC(=O)N[C@@H]21 | – | – | – | – | 65 nM
6 | Nc1ncnc2c1ncn2CCCCNS(=O)(=O)NC(=O)CCCC[C@@H]1SC[C@@H]2NC(=O)N[C@@H]21 | – | – | – | – | 7 nM

From ChEMBL document CHEMBL5608252, “New Potent Sulfonamide-Based Inhibitors of S. aureus Biotin Protein Ligase” (ACS Med Chem Lett, 2024)
